Assay results from ChEMBL document CHEMBL4507300 (2021).

What was measured:
[1] = molecular target: Protein kinase C eta type (Homo sapiens) (UniProt P24723); settings: Compound concentration 1000.0 nM
[2] = molecular target: Calcium/calmodulin-dependent protein kinase type 1 (Homo sapiens) (UniProt Q14012); settings: Compound concentration 1000.0 nM
[3] = molecular target: Tyrosine-protein kinase JAK3 (Homo sapiens) (UniProt P52333); settings: Compound concentration 1000.0 nM
[4] = molecular target: Rho-associated protein kinase 1 (Homo sapiens) (UniProt Q13464); settings: Compound concentration 1000.0 nM
[5] = molecular target: Mitogen-activated protein kinase 15 (Homo sapiens) (UniProt Q8TD08); settings: Compound concentration 1000.0 nM
[6] = test system: Phosphatidylinositol 4,5-bisphosphate 3-kinase catalytic subunit alpha isoform (Homo sapiens), P42336 [Q546K]; settings: Compound concentration 1000.0 nM
[7] = molecular target: cAMP-dependent protein kinase catalytic subunit beta (Homo sapiens) (UniProt P22694); settings: Compound concentration 1000.0 nM
[8] = molecular target: Ephrin type-B receptor 3 (Homo sapiens) (UniProt P54753); settings: Compound concentration 1000.0 nM
[9] = molecular target: Maternal embryonic leucine zipper kinase (Homo sapiens) (UniProt Q14680); settings: Compound concentration 1000.0 nM
[10] = test system: Phosphatidylinositol 4,5-bisphosphate 3-kinase catalytic subunit alpha isoform (Homo sapiens), P42336 [I800L]; settings: Compound concentration 1000.0 nM
[11] = molecular target: Cyclin-dependent kinase 8 (Homo sapiens) (UniProt P49336); settings: Compound concentration 1000.0 nM
[12] = molecular target: Protein-tyrosine kinase 2-beta (Homo sapiens) (UniProt Q14289); settings: Compound concentration 1000.0 nM
[13] = molecular target: Protein kinase C iota type (Homo sapiens) (UniProt P41743); settings: Compound concentration 1000.0 nM
[14] = test system: Mast/stem cell growth factor receptor Kit (Homo sapiens), P10721 [V559D]; settings: Compound concentration 1000.0 nM
[15] = molecular target: Inhibitor of nuclear factor kappa-B kinase subunit beta (Homo sapiens) (UniProt O14920); settings: Compound concentration 1000.0 nM
[16] = molecular target: Serine/threonine-protein kinase MAK (Homo sapiens) (UniProt P20794); settings: Compound concentration 1000.0 nM
[17] = molecular target: Serine/threonine-protein kinase 10 (Homo sapiens) (UniProt O94804); settings: Compound concentration 1000.0 nM
[18] = test system: Mast/stem cell growth factor receptor Kit (Homo sapiens), P10721 [D816V]; settings: Compound concentration 1000.0 nM
[19] = molecular target: TRAF2 and NCK-interacting protein kinase (Homo sapiens) (UniProt Q9UKE5); settings: Compound concentration 1000.0 nM
[20] = molecular target: Sigma intracellular receptor 2 (Homo sapiens, UniProt Q5BJF2); assay: GPCRScan assay: inhibition of Sigma 2; set-up: radioligand conc. used [nm] 5.0, parental cells HEKT
[21] = molecular target: Alpha-1B adrenergic receptor (Homo sapiens) (UniProt P35368); settings: Compound concentration 10.0 uM
[22] = molecular target: Muscle, skeletal receptor tyrosine-protein kinase (Homo sapiens) (UniProt O15146); settings: Compound concentration 1000.0 nM
[23] = molecular target: RAC-gamma serine/threonine-protein kinase (Homo sapiens) (UniProt Q9Y243); settings: Compound concentration 1000.0 nM
[24] = molecular target: Cyclin-G-associated kinase (Homo sapiens) (UniProt O14976); settings: Compound concentration 1000.0 nM
[25] = molecular target: Serine/threonine-protein kinase mTOR (Homo sapiens) (UniProt P42345); settings: Compound concentration 1000.0 nM
[26] = molecular target: Mitogen-activated protein kinase kinase kinase 10 (Homo sapiens) (UniProt Q02779); settings: Compound concentration 1000.0 nM
[27] = molecular target: Serine/threonine-protein kinase PAK 6 (Homo sapiens) (UniProt Q9NQU5); settings: Compound concentration 1000.0 nM
[28] = molecular target: Microtubule-associated serine/threonine-protein kinase 1 (Homo sapiens) (UniProt Q9Y2H9); settings: Compound concentration 1000.0 nM
[29] = molecular target: Fibroblast growth factor receptor 1 (Homo sapiens) (UniProt P11362); settings: Compound concentration 1000.0 nM
[30] = molecular target: Histamine H4 receptor (Homo sapiens) (UniProt Q9H3N8); settings: Compound concentration 10.0 uM
[31] = molecular target: Serine/threonine-protein kinase PAK 3 (Homo sapiens) (UniProt O75914); settings: Compound concentration 1000.0 nM
[32] = molecular target: Dual specificity mitogen-activated protein kinase kinase 7 (Homo sapiens) (UniProt O14733); settings: Compound concentration 1000.0 nM
[33] = molecular target: Receptor tyrosine-protein kinase erbB-3 (Homo sapiens) (UniProt P21860); settings: Compound concentration 1000.0 nM
[34] = molecular target: Mast/stem cell growth factor receptor Kit (Homo sapiens) (UniProt P10721); settings: Compound concentration 1000.0 nM
[35] = molecular target: Receptor tyrosine-protein kinase erbB-4 (Homo sapiens) (UniProt Q15303); settings: Compound concentration 1000.0 nM
[36] = molecular target: Ribosomal protein S6 kinase alpha-2 (Homo sapiens) (UniProt Q15349); settings: Compound concentration 1000.0 nM
[37] = molecular target: cAMP-dependent protein kinase catalytic subunit alpha (Homo sapiens) (UniProt P17612); settings: Compound concentration 1000.0 nM
[38] = test system: Epidermal growth factor receptor (Homo sapiens), P00533 [L861Q]; settings: Compound concentration 1000.0 nM
[39] = molecular target: Mitogen-activated protein kinase kinase kinase 20 (Homo sapiens) (UniProt Q9NYL2); settings: Compound concentration 1000.0 nM
[40] = test system: Mast/stem cell growth factor receptor Kit (Homo sapiens), P10721 [V559D,T670I]; settings: Compound concentration 1000.0 nM
[41] = molecular target: Wee1-like protein kinase (Homo sapiens) (UniProt P30291); settings: Compound concentration 1000.0 nM
[42] = test system: eIF-2-alpha kinase GCN2 (Homo sapiens), Q9P2K8 [S808G]; settings: Compound concentration 1000.0 nM
[43] = molecular target: D(3) dopamine receptor (Homo sapiens) (UniProt P35462); settings: Compound concentration 10.0 uM
[44] = molecular target: Serine/threonine-protein kinase PRP4 homolog (Homo sapiens) (UniProt Q13523); settings: Compound concentration 1000.0 nM
[45] = molecular target: Myotonin-protein kinase (Homo sapiens) (UniProt Q09013); settings: Compound concentration 1000.0 nM

Sequence of Sigma intracellular receptor 2 (Q5BJF2 whole entry): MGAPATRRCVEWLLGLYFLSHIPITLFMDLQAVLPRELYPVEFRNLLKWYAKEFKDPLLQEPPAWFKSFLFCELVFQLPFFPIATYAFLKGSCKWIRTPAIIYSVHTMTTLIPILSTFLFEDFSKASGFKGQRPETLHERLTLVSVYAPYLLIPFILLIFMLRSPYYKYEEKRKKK
Sequence of Rho-associated protein kinase 1 (Homo sapiens) (Q13464 2-1354 limits assumed): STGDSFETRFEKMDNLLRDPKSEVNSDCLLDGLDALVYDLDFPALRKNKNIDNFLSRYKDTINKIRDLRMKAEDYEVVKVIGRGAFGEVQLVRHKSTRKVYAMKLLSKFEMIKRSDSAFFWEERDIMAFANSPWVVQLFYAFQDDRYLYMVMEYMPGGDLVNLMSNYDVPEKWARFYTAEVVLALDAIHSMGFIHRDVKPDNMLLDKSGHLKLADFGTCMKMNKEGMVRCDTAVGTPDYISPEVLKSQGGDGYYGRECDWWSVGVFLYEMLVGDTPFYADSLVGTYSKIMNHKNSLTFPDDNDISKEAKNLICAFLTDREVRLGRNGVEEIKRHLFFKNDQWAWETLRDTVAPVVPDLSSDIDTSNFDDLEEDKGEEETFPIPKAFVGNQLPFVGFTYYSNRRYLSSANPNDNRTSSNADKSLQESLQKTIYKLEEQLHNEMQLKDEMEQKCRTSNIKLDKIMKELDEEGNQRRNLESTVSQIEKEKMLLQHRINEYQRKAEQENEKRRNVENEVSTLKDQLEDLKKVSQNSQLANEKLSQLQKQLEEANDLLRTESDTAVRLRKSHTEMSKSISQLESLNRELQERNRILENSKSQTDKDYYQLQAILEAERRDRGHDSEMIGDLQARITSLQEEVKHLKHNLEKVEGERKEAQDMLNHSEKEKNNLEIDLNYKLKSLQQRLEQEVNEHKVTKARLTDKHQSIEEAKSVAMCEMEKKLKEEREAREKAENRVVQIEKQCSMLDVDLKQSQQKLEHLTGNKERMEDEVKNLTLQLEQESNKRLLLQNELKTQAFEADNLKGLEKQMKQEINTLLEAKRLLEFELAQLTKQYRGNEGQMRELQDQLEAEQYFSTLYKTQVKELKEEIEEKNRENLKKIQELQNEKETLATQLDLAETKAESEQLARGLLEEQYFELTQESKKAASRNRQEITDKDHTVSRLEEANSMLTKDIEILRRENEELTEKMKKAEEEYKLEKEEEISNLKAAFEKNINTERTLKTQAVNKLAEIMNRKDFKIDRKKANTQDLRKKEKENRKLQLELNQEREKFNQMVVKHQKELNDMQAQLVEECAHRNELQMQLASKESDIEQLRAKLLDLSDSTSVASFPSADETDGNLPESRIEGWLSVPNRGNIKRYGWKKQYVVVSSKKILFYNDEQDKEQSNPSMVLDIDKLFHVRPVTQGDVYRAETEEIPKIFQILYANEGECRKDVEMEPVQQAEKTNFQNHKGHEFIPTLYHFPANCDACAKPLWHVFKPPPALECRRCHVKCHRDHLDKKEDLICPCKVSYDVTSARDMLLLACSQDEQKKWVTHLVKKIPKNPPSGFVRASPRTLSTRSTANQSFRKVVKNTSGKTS
Sequence of Mast/stem cell growth factor receptor Kit (Homo sapiens) (P10721 whole entry): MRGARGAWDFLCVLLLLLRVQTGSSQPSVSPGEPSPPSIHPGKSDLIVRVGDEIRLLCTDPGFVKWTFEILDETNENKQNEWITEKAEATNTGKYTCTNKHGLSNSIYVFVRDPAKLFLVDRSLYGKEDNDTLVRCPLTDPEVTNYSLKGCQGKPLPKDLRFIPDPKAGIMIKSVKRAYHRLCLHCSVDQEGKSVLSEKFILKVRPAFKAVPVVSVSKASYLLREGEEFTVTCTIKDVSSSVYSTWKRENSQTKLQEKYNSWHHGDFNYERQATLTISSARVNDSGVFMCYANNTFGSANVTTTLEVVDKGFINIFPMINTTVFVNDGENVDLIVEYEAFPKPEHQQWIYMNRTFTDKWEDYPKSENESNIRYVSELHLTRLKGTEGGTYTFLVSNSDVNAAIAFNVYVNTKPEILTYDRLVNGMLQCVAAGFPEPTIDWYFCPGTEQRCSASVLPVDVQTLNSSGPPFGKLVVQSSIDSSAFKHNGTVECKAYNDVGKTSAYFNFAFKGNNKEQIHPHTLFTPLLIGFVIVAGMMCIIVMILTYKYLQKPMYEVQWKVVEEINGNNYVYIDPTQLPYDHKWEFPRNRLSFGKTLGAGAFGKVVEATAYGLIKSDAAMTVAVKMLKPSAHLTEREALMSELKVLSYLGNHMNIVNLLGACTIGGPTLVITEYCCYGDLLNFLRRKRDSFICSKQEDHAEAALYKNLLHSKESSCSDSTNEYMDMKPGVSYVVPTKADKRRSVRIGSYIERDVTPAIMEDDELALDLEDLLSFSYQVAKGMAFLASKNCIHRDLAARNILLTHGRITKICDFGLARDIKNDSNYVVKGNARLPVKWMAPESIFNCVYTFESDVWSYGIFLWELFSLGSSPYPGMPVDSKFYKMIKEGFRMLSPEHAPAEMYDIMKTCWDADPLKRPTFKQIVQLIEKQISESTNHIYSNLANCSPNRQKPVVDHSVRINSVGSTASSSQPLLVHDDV
Sequence of Inhibitor of nuclear factor kappa-B kinase subunit beta (Homo sapiens) (O14920 whole entry): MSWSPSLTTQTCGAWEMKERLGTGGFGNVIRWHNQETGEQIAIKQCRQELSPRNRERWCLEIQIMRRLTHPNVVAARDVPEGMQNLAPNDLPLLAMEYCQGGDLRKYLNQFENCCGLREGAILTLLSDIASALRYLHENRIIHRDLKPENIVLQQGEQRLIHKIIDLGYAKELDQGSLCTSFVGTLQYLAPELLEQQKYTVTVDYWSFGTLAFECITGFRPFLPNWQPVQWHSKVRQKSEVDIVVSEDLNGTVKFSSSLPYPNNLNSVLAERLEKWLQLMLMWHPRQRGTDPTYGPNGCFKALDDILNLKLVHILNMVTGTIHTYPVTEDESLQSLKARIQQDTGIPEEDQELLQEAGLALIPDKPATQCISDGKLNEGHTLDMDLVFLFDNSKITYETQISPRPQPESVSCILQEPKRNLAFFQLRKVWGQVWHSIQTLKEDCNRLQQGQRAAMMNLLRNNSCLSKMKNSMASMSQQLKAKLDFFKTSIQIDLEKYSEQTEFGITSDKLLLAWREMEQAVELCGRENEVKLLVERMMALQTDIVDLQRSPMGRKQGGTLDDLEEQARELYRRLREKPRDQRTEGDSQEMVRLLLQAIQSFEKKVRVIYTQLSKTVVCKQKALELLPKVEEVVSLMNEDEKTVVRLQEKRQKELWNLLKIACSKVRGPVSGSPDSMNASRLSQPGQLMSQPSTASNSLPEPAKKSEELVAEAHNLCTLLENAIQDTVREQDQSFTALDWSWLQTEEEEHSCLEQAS
Sequence of Mast/stem cell growth factor receptor Kit (Homo sapiens), P10721 [V559D] (P10721 whole entry V559D): as the sequence (P10721 whole entry) above, with V559D counted along it
Sequence of Cyclin-G-associated kinase (Homo sapiens) (O14976 whole entry): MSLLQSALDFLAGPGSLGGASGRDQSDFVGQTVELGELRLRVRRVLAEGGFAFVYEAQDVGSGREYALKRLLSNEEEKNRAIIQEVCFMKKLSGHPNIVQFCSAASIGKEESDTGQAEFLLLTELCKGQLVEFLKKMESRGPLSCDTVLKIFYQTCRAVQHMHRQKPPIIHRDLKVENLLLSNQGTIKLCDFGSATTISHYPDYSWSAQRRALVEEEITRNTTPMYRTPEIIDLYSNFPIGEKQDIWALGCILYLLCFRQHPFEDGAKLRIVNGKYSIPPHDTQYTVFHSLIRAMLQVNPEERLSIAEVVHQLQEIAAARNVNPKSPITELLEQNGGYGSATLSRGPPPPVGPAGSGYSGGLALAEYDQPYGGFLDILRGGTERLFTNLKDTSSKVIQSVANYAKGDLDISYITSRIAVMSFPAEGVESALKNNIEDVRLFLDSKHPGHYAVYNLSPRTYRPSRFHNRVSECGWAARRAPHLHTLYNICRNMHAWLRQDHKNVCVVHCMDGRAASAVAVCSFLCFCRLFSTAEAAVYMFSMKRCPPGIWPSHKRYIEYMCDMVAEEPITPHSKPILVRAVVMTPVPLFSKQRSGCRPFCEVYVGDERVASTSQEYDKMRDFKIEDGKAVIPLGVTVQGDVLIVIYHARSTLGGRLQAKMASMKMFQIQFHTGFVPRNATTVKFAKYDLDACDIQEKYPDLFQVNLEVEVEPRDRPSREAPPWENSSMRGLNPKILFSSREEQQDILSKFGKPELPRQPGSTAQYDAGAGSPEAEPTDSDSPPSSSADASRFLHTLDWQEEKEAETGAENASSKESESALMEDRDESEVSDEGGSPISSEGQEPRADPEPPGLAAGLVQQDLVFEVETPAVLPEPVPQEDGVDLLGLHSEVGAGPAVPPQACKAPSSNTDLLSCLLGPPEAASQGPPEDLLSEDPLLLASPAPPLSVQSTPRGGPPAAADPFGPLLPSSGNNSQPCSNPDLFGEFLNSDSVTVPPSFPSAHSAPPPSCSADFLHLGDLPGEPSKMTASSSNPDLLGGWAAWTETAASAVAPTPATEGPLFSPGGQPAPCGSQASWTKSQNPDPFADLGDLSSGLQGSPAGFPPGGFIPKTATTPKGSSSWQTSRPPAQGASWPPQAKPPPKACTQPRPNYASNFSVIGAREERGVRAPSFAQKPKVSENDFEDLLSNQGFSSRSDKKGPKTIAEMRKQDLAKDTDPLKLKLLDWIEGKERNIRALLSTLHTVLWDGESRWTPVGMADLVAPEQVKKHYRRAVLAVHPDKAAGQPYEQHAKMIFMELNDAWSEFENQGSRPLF
Sequence of Cyclin-dependent kinase 8 (Homo sapiens) (P49336 whole entry): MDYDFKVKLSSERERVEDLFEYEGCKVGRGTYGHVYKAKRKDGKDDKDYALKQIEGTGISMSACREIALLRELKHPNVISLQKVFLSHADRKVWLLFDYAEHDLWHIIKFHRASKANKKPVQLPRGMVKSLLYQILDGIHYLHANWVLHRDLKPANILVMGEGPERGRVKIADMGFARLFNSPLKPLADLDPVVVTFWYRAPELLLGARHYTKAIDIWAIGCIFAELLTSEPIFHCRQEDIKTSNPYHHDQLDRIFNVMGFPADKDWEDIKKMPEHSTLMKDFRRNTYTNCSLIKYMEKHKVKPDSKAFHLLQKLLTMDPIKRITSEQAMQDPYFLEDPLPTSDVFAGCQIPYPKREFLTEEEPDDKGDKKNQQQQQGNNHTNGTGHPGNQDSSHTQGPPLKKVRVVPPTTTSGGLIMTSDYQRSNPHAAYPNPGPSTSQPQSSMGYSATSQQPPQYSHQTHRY

COc1cccc(CNC(=O)c2nc3scc(COCc4ccc(C(=O)O)cc4)c3c(=O)[nH]2)c1 [T-26c]
residual activity [1]: 83.7%
residual activity [2]: 88.2%
residual activity [3]: 78.4%
residual activity [4]: 100%
residual activity [5]: 82.4%
residual activity [6]: 70.4%
residual activity [7]: 91.1%
residual activity [8]: 85.4%
residual activity [9]: 100%
residual activity [10]: 77.2%
residual activity [11]: 73.4%
residual activity [12]: 85.3%
residual activity [13]: 100%
residual activity [14]: 99.1%
residual activity [15]: 73.2%
residual activity [16]: 100%
residual activity [17]: 67.8%
residual activity [18]: 100%
residual activity [19]: 100%
Ki ([20]; read-out: Ki): 4.55 µM
Ki ([20]; read-out: pKi (converted)): 3.98 µM
inhibition [21]: 7.58%
residual activity [22]: 100%
residual activity [23]: 84.8%
residual activity [24]: 99.6%
residual activity [25]: 100%
residual activity [26]: 100%
residual activity [27]: 100%
residual activity [28]: 84.4%
residual activity [29]: 86.5%
inhibition [30]: 17.6%
residual activity [31]: 51.9%
residual activity [32]: 81.2%
residual activity [33]: 89.4%
residual activity [34]: 93%
residual activity [35]: 86.1%
residual activity [36]: 100%
residual activity [37]: 100%
residual activity [38]: 77.8%
residual activity [39]: 85.5%
residual activity [40]: 100%
residual activity [41]: 95.7%
residual activity [42]: 100%
inhibition [43]: 10.5%
residual activity [44]: 97.3%
residual activity [45]: 85.4%
